Measurements taken from article PMC7467569, “The Progesterone 5β-Reductase/Iridoid Synthase Family: A Catalytic Reservoir for Specialized Metabolism across Land Plants” (ACS Chemical Biology, 2020).

Tests used:
[1] = biological target: T1, Catharanthus roseus 5 (PRISE5, ISY) (Catharanthus roseus, UniProt K7WDL7); assay: NADPH consumption at […] nm; format: biochemical; conditions: read-out: Progesterone / KM; 250 μM NADPH, 50 mM HEPES/NaOH pH 7.0, 100 mM NaCl, 25 °C, 1.5% ethanol
T1 construct: codon-optimized gene from earlier study in pOPINF, N-terminal His6 tag (no cleavage told), E. coli

Digitalis purpurea 2 = biological target: T2, Digitalis purpurea 2 (Digitalis purpurea, UniProt D2JSQ9); assay: NADPH consumption at […] nm; format: biochemical; conditions: 250 μM NADPH, 50 mM HEPES/NaOH pH 7.0, 100 mM NaCl, 25 °C, 0.1% tetrahydrofuran; read-out: 8-Oxogeranial / KM
T2 construct: gene P5BR2; synthetic gene in pOPINF, N-terminal His6 tag (no cleavage told), E. coli

| Km (Digitalis purpurea 2) | Structure (SMILES) | Km [1] |
| --- | --- | --- |
|  | CC(=O)[C@H]1CC[C@H]2[C@@H]3CCC4=CC(=O)CC[C@]4(C)[C@H]3CC[C@]12C [progesterone] | 28.8 ± 11.5 µM |
| 17.7 ± 5.9 µM | C/C(C=O)=C\CC/C(C)=C/C=O [8-oxogeranial] |  |
